The text below walks through data of publication PMC11123956, “Nobiletin Stimulates Adrenal Hormones and Modulates the Circadian Clock in Mice” (Nutrients, 2024).

One test concerns the target T1, PDE7B (Homo sapiens, UniProt Q9NP56).
T1 construct: purchased Eurofins Panlabs Discovery Services Taiwan, Ltd. (contract assay); host or cells: insect Sf9 cells
Kind of test: PDE enzyme  assay, PDE7B. The format is biochemical. The protocol: (§1) Enzyme assays for various subtypes of PDE (Table 1 and Figure 4) were conducted by Eurofins Panlabs Discovery Services Taiwan, Ltd. (New Taipei City, Taiwan). In the assays, five or six concentrations of nobiletin over five or six orders of magnitude were examined in experiments conducted in duplicate to determine the IC50 (concentration of nobiletin exerting half-maximal inhibition of control-specific activity). IC50 values were determined by nonlinear least squares regression analysis using MathIQTM (ID Business Solutions Ltd., Woking, UK). FAM-cAMP, FAM-cGMP (0.1 μM), and 100 μM [^3H]cGMP + cGMP were used for the substrate in the human recombinant insect Sf9 cells or Bovine retinal rod outer segments depending on the PDE subtype. The spectrofluorometric quantitation of fluorescein-AMP-IMAP, fluorescein-GMP-IMAP, or [^3H] guanosine was used depending on the PDE subtype. A known […] of each PDE was used as the positive control.

For a further test, the target named is T2, PDE5A (Homo sapiens, UniProt O76074).
T2 construct: purchased Eurofins Panlabs Discovery Services Taiwan, Ltd. (contract assay); host or cells: insect Sf9 cells
The test is described as follows: PDE enzyme  assay, PDE5A. The test is classed as biochemical. On the procedure:
as §1

In another test the test system is PDE3. Further details: method as in PMID 19906817. To be noted: cited from earlier work.
For the next test, the system named is serum adrenaline. Kind of test: Serum adrenaline ELISA after i.p. injection. The format is in vivo, mice. To be noted: intraperitoneal injection, 100 mg/kg. The protocol: Male C57BL/6J mice (7 weeks old) were purchased from Charles River Japan (Kanagawa, Japan) and used for the serum hormone assay and RT-PCR. Male ICR mice were purchased from Tokyo Laboratory Animals Science Co., Ltd. (Tokyo, Japan), and female PERIOD2::LUCIFERASE (PER2::LUC) knock-in mice (ICR background) bred at Waseda University were used for blood glucose measurements and in vivo imaging assays, respectively. The mice were all housed under conditions of controlled temperature (23 °C ± 3 °C), humidity (50% ± 20%), and lighting (lights on from 07:00 to 19:00 at Taisho Pharmaceutical Co., Ltd. or from 08:00 to 20:00 at Waseda University). In the 24 h cycle, Zeitgeber time 0 (ZT0) was designated as the time when the lights were turned on, and ZT12 was designated as the time when the lights were turned off. […]
Serum corticosterone, adrenaline, and adreno-corticotropic hormone (ACTH) levels, and corticotropin releasing factor (CRF) in the hypothalamus, were measured using enzyme-linked immunosorbent assay (ELISA). […] Blood glucose levels were measured using a Glucose PILOT kit (Aventir Biotech, LLC, Carlsbad, CA, USA). The range of blood glucose that could be precisely measured with the kit was 20–600 mg/dL. […]
A general note: ELISA stands for enzyme-linked immunosorbent assay.

For a further test, the system named is serum ACTH. Kind of test: Serum ACTH ELISA. The format is in vivo, mice. As to conditions: an hour after injection (50 or 100 mg/kg). On the procedure:
Serum corticosterone, adrenaline, and adreno-corticotropic hormone (ACTH) levels, and corticotropin releasing factor (CRF) in the hypothalamus, were measured using enzyme-linked immunosorbent assay (ELISA). A corticosterone ELISA kit (Cayman Chemical Company, Ann Arbor, MI, USA), an adrenaline ELISA kit (Abcam, Cambridge, UK), an ACTH ELISA kit (Phoenix Pharmaceuticals Inc., Burlingame, CA, USA), and a CRF ELISA kit (Yanaihara Institute Inc., Shizuoka, Japan) were used. Assays were conducted according to the manufacturer’s instructions. Blood samples were collected from the mice at ZT4, 5, and 7 after the administration of nobiletin at ZT3 (10 mg/kg and 100 mg/kg, in Figure 3A,B). Blood glucose levels were measured using a Glucose PILOT kit (Aventir Biotech, LLC, Carlsbad, CA, USA). The range of blood glucose that could be precisely measured with the kit was 20–600 mg/dL. Before measurement, we administered nobiletin (100 mg/kg body weight) to the mice, after 4 h fasting. Blood was collected from the tail vein of each mouse for measurement. The measurements were conducted at 0, 15, 30, 45, 60, and 90 min after reagent administration in Figure 3C. Samples were collected one hour after nobiletin treatment (50 or 100 mg/kg; Figure 3D,E), or 2 or 4 h after treatment in Figure 3F. […]

T1 sequence (Q9NP56 whole entry): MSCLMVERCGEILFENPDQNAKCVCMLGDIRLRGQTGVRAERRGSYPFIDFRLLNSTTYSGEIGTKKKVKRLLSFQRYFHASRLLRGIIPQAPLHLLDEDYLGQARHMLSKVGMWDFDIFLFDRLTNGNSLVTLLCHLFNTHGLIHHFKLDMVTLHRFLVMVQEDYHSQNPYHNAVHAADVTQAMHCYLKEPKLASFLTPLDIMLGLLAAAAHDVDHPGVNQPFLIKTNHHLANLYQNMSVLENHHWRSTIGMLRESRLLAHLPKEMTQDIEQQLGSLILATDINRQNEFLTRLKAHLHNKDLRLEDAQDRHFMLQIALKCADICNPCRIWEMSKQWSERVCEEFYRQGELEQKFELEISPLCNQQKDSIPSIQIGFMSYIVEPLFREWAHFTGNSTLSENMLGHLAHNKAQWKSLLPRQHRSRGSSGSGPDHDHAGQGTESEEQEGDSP

A word on the IC50: it is the point on the concentration scale where inhibition reaches its midpoint. Regarding `COc1ccc(-c2cc(=O)c3c(OC)c(OC)c(OC)c(OC)c3o2)cc1OC` [nobiletin], the IC50 against PDE7B was 20.4 µM; on PDE5A it was 14.8 µM; in the test with PDE3 it was 10.4 µM. For the same molecule, in the test on serum adrenaline, the adrenaline secretion entry was “significantly and potently stimulated”. In addition, in the test on serum ACTH, the “serum ACTH” value is “did not change significantly”.
